Where two headings read alike, the source gives them in different places.
Assays:
5-HT2A receptor [1] = target: T1, 5-HT2A receptor (Homo sapiens, UniProt P28223); experiment: 5-HT2AR calcium flux activation assay; assay type: cell-based; design: expressed in transfected cells; host or cells: HEK293; settings: for Emax: Max Dose 100000 nM
Protocol: • 1) For cultured cells (HEK293 cells stably expressing human 5-HT2A receptor), they were first washed twice with pre-warmed DPBS, then an appropriate amount of trypsin was added for digestion at 37°C for 1 minute; an appropriate amount of the culture medium was then added to stop digestion, and 1 mL was taken for counting and vitality determination using Vi-CELL™. • 2) Cells were centrifuged at 1000 rpm for 5 minutes. • 3) The supernatant was gently discarded, being careful not to disturb the cell pellet. • 4) Cells were diluted with the culture medium to 1×10^6 cells/mL (20,000 cells/20 µL) and seeded into 384-well poly-lysine coated cell plates. They were cultured at 37°C under 5% CO2 for 16-20 hours.
• 1) Preparation of 250 mM Probenecid solution: According to the kit instructions, 77 mg of probenecid was added to 1 mL of FLIPR buffer salt solution. Prepared fresh for immediate use. • 2) Preparation of Fluo-4 Direct™ (2×, 8 µM) loading buffer: According to the kit instructions, the required amount of Fluo-4 Direct™ was thawed in advance. 10 mL of FLIPR buffer salt solution and 0.2 mL of 250 mM Probenecid solution were added to each vial. It was vortexed in the dark for >5 minutes. Prepared fresh for immediate use.
• 1) Preparation of control and test compound plates: Compounds were gradient diluted to 10 points using Echo, and 750 nL was transferred to the corresponding compound plate. • 2) 30 µL of assay buffer salt solution was added to the corresponding compound plate, which was then centrifuged at 1000 rpm for 1 minute; • 3) The cell plate prepared the day before was taken from the incubator, and 20 µL of 2× Fluo-4 Direct™ buffer was added to each well, making a total volume of 40 µL. • 4) The plate was incubated in a 5% CO2, 37°C incubator for 50 minutes, then left at room temperature for 10 minutes. • 5) The compound plate, the cell plate, and pipette tips were placed into the instrument; • 6) The FLIPR instrument software was run according to the set program, adding 10 µL of the specified concentrations of test compounds and control compounds to the cell plate, and fluorescence signals were read. After reading, data was exported using the "Max-Min", "Read 1 to 90" method in the software. • 7) Data analysis: Agonist Activation% = (RLU−DMSO)/(HC−DMSO)*100 [formula] • RLU: Relative Light Units, read values 1 to 90; • HC: Average fluorescence signal of the highest concentration point of the agonist; • DMSO: Average fluorescence signal of the DMSO group; • 8) Data was fitted using Prism 5.0.
For agonist: EC50 was fitted using "log(agonist) vs. response -- Variable slope". Table 2: 5-HT2AR Calcium Flux Activation Assay

5-HT2A receptor [2] = target: T1, 5-HT2A receptor; experiment: 5-HT2A receptor isotope competition affinity assay; assay type: binding
Protocol: A radiolabeled ligand (agonist or antagonist) incubated with receptor protein could form a receptor-ligand complex. An added test compound could compete with the isotopically labeled ligand for the receptor binding, eventually forming a relative steady-state equilibrium. The affinity of the test compound for the receptor was indirectly evaluated by measuring the dissociation of the isotopically labeled ligand from the receptor.
A 100x serial gradient dilution of compounds was prepared in DMSO, starting from 1 mM with 4-fold serial dilutions, resulting in 10 concentration points. Using a pipettor, 1 µL of each gradient concentration of the test compound (final concentration starting at 10 µM, 4-fold serial dilutions, 10 concentration points) was transferred to a 96-well assay plate, to each well of which 49 µL of 5-HT2A receptor protein (102 µg/mL, prepared in an assay buffer: 50 mM Tris-HCl, pH 7.4) had been added in advance (final concentration 5 µg/well). This was followed by the addition of 50 µL of isotopically labeled [^3H]-Ketanserin (2 nM, 2× final concentration, prepared in the assay buffer). The plate was sealed and incubated on a shaker at room temperature for 1 hour. The reaction mixture was filtered through a Unifilter-96 GF/C filter plate pre-treated with 0.3% PEI. The filter plate was washed with a precooled (4°C) assay buffer and then dried in an incubator at 50°C. A scintillation liquid was added, and the plate was read using a MicroBeta2 instrument. The percentage inhibition was calculated using the equation: %Inhibition=(CountHigh Signal Control-CountSample)/(CountHigh Signal Control-CountLow Signal Control)*100. A four-parameter logistic fit was used to calculate the IC50 value. High Signal Control: No compound group (the same volume of DMSO substituted). Low Signal Control: Ketanserin group (non-isotopically labeled, 2× final concentration). Table 1: Results of 5-HT2A receptor isotope competition affinity assay, Ki Values

Mice (strain C57BL/6) = experiment: Head-twitch response test in mice; assay type: in vivo; settings: reflects hallucinogenic effect, Figure 1
Protocol: • 1. Assay conditions and materials: • 1.1 Animal source: Mice (strain C57BL/6, purchased from Shanghai Lingchang Biotechnology Co., Ltd., 8-9 weeks old, 20-24 grams, male) • 1.2 Conditions: Temperature (20-25°C), relative humidity (40-70%), light cycle (12-hour light cycle (7:00-19:00)), free access to food and water • 1.3 Marking: Animals were marked on the tail. • 2. Assay procedure:
• A) Adaptation: Starting from the second day after the animals arrived, they were conciliated by stroking and acclimated for seven consecutive days to reduce their stress response. • B) Grouping: One hour before the assay test, animals were placed in the testing room for adaptation. On the test day, animals were randomly grouped according to body weight. Each group contained 12 animals. • C) Assay Dosing: Animal body weight was measured, and compounds were administered according to the group, with a dosing volume of 10 mL/kg for all. • D) Testing: After dosing, animals were placed in transparent observation chambers, and head-twitch behaviors were recorded over 60 minutes. • E) Assay test indicator: Total number of head-twitches within 60 minutes after dosing.

[3] = HEK293 cells stably expressing human 5-HT2A receptor, FLIPR, Fluo-4, read-out: EC50
[4] = HEK293 cells stably expressing human 5-HT2A receptor
[5] = competition with [3H]-Ketanserin, 1 hour, room temperature, read-out: 5-HT2A receptor/Ki

T1 sequence (P28223 whole entry): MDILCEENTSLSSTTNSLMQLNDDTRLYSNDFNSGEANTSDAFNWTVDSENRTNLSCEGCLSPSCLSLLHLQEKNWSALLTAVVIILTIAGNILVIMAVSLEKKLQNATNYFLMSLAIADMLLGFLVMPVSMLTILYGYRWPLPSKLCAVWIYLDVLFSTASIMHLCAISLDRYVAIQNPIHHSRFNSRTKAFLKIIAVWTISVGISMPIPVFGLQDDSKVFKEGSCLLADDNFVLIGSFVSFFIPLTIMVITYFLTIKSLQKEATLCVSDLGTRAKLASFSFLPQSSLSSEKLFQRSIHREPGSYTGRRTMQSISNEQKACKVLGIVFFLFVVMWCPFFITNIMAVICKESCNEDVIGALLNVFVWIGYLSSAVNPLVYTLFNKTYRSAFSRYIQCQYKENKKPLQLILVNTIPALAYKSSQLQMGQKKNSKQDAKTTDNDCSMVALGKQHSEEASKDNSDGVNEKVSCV

SMILES	EC50 (5-HT2A receptor [1]; [3]) [nM]	Emax (5-HT2A receptor [1]; [4]) [%]	Ki (5-HT2A receptor [2]; [5]) [nM]	also measured
Oc1cccc2[nH]cc(C3CCN(CCc4coc5ccccc45)C3)c12 (centres unmarked) [Compound 134]	43.3	68.8	< 100	
Cn1cc(CCCN2CCC(c3c[nH]c4cccc(O)c34)C2)cn1 (centres unmarked) [Compound 60]	33.3	29.9	< 100	
Cc1nn(CCCN2CCC(c3c[nH]c4cccc(O)c34)C2)nc1C (racemic) [Compound 127]	3.94	53.4		
Cc1nonc1CCCN1CCC(c2c[nH]c3ccccc23)C1 (centres unmarked) [Compound 54, 3-(1-(3-(4-methyl-1,2,5-oxadiazol-3-yl)propyl)pyrrolidin-3-yl)-1H-indole]	86.5	46.7	< 100	
Oc1cc(F)cc2[nH]cc(C3CCN(CCCn4nccn4)C3)c12 (centres unmarked) [Compound 184, 6-fluoro-3-(1-[3-(2H-1,2,3-triazol-2-yl)propyl]pyrrolidin-3-yl)-1H-indol-4-ol]		52.4		EC50 (5-HT2A receptor [1]): 8.72 nM; Ki (5-HT2A receptor [2]): < 100 nM
Cc1cnn(CCCN2CCC(c3c[nH]c4cccc(O)c34)C2)n1 (centres unmarked) [Compound 187, 3-(1-(3-(4-methyl-2H-1,2,3-triazol-2-yl)propyl)pyrrolidin-3-yl)-1H-indol-4-ol]	4.17	63.7	< 100	
COc1ccccc1CCCN1CCC(c2c[nH]c3cccc(O)c23)C1 (centres unmarked) [Compound 2]	16.9	51.5	< 100	
Cc1cnn(CCCN2CCC(c3c[nH]c4ccccc34)C2)n1 (centres unmarked) [Compound 126]	27.7	49.7		
Cc1nc(C)n(CCCN2CCC(c3c[nH]c4ccccc34)C2)n1 (centres unmarked) [Compound 122, 3-(1-(3-(3,5-dimethyl-1H-1,2,4-triazol-1-yl)propyl)pyrrolidin-3-yl)-1H-indole]	24.8	38.6	< 100	
c1ccc2c(C3CCN(CCCc4ncon4)C3)c[nH]c2c1 (centres unmarked) [Compound 49, 3-(1-[3-(1,2,4-oxadiazol-3-yl)propyl]pyrrolidin-3-yl)-1H-indole]	34	47.6	< 100	Total number of head-twitches within 60 minutes after dosing (Mice (strain C57BL/6); dose 30 mpk): did not cause significant head-twitch behavior
c1ccc2c(C3CCN(CCCn4nccn4)CC3)c[nH]c2c1 [reference compound]	> 100000	25.5		
Oc1cccc2[nH]cc(C3CCN(CCCn4ncc(C5CC5)n4)C3)c12 (centres unmarked) [Compound 188, 3-(1-(3-(4-cyclopropyl-2H-1,2,3-triazol-2-yl)propyl)pyrrolidin-3-yl)-1H-indol-4-ol]		48.5		EC50 (5-HT2A receptor [1]): 10.7 nM; Ki (5-HT2A receptor [2]): < 100 nM
c1ccc2c([C@H]3CCN(CCCc4ncon4)C3)c[nH]c2c1 [Compound 171, (R)-3-(1-[3-(1,2,4-oxadiazol-3-yl)propyl]pyrrolidin-3-yl)-1H-indole]	63.5	40.2		
c1ccc2c(C3CCN(CCCn4nccn4)C3)c[nH]c2c1 (centres unmarked) [Compound 125, 3-(1-(3-(2H-1,2,3-triazol-2-yl)propyl)pyrrolidin-3-yl)-1H-indole]	23.1	62.9	< 100	
COc1cc(CC(C)N)c(OC)cc1I (centres unmarked) [DOI, reference compound]				Total number of head-twitches within 60 minutes after dosing (Mice (strain C57BL/6); dose 3 mpk): significant head-twitch behavior
c1ccc2c(C3CCN(CCc4nnc5ccccn45)C3)c[nH]c2c1 (centres unmarked) [Compound 142, 3-(1-(2-((1,2,4)triazolo(4,3-a)pyridin-3-yl)ethyl)pyrrolidin-3-yl)-1H-indole]		41.9		EC50 (5-HT2A receptor [1]): 45.9 nM; Ki (5-HT2A receptor [2]): < 100 nM

SMILES	EC50 (5-HT2A receptor [1]; [3]) [nM]	Emax (5-HT2A receptor [1]; [4]) [%]	Ki (5-HT2A receptor [2]; [5]) [nM]	also measured
COc1ccc(F)c2nnc(CCN3CC(c4c[nH]c5cc(F)ccc45)C3)n12 [Compound 148, 6-fluoro-3-(1-(2-(8-fluoro-5-methoxy-(1,2,4)triazolo(4,3-a)pyridin-3-yl)ethyl)azetidin-3-yl)-1H-indole]			< 100	
COc1ccccc1CCCN1CCC(n2ccc3cc(F)ccc32)C1 (centres unmarked) [Compound 7]			< 100	
CC(C)c1cnn(CCCN2CCC(c3c[nH]c4cccc(O)c34)C2)n1 (centres unmarked) [Compound 128]	7.09	63.1		
COc1ccccc1CCCN1CCCC(c2c[nH]c3cccc(O)c23)C1 (centres unmarked) [Compound 4, 3-(1-(3-(2-methoxyphenyl)propyl)piperidin-3-yl)-1H-indol-4-ol]			< 100	
Cc1nnc(CCCN2CCC(n3ccc4cc(F)ccc43)C2)n1C(C)C (centres unmarked) [Compound 103]			< 100	
C1=C(c2c[nH]c3ccccc23)CN(CCCn2nccn2)CC1 [Compound 179, 3-(1-(3-(2H-1,2,3-triazol-2-yl)propyl)-1,2,5,6-tetrahydropyridin-3-yl)-1H-indole]			< 100	
Fc1ccc2c(C3CCN(CCCc4nncn4CC(F)(F)F)C3)c[nH]c2c1 (centres unmarked) [Compound 83]			< 100	
COc1cccc2nnc(CCN3CCC(c4c[nH]c5cc(F)ccc45)C3)n12 (centres unmarked) [Compound 147, 6-fluoro-3-(1-(2-(5-methoxy-(1,2,4)triazolo(4,3-a)pyridin-3-yl)ethyl)pyrrolidin-3-yl)-1H-indole]			< 100	
Fc1ccc2c(C3CCN(CCCc4nncn4C4CCC4)C3)c[nH]c2c1 (centres unmarked) [Compound 92]			< 100	
CC(C)n1cnnc1CCCN1CCC(c2c[nH]c3cc(F)ccc23)C1 (centres unmarked) [Compound 84]			< 100	
COc1ccccc1CCCN1CCOC(c2c[nH]c3ccncc23)C1 (centres unmarked) [Compound 34, 4-(3-(2-methoxyphenyl)propyl)-2-(1H-pyrrolo[3,2-c]pyridin-3-yl)morpholine]				Ki (5-HT2A receptor [2]): < 100 nM
CC(C)n1cnnc1CCCN1CCC(n2ccc3cc(F)ccc32)C1 (centres unmarked) [Compound 80]			< 100	
Cc1cc(CCN2CCC(c3c[nH]c4cccc(F)c34)CC2)n[nH]1 [reference compound]	> 100000	0.9		
Oc1cccc2[nH]cc(C3CCN(CCCc4ncsn4)C3)c12 (centres unmarked) [Compound 56]	8.6	67.7	< 100	
Cn1cc(CCCN2CCC(n3ccc4cc(F)ccc43)C2)cn1 (centres unmarked) [Compound 61]			< 100	

Reference: patent publication EP4752142A1, “5-HT2A RECEPTOR AGONIST, AND PREPARATION METHOD THEREFOR AND USE THEREOF” (Innovstone Therapeutics Limited, priority 2023, dated 2025)
